Data set [1] relates to LoVo/DX (colon adenocarcinoma resistant to Doxorubicin). Kind of data set: cells. To be noted: for IC50: Homo sapiens, 4 h, read-out: Cytotoxicity IC50 LoVo/DX. The text has this:
(§1) Colony assay: 4 hr treatment
(§2) ^(1) IC50 = concentration inhibiting 50% of colony formation
^(2) R.I. = Resistance Index = (IC50 LoVo/DX)(IC50 LoVo)

The test system of data set [2] is Disseminated P388/DX Johnson Leukemia. In words: Antitumor activity "in vivo" against disseminated P388/DX Johnson leukemia, resistant to Doxorubicin. Further details: species or system murine. The method, then: ^(7) 10^5 cell/mouse were injected i.v. on day 0.
(§3) ^(4) Compounds were suspended in Tween 80 10% and injected i.p. one
(§4) day after tumor transplantation.
(§5) ^(5) Median survival time of treated mice/Median survival time of
(§6) ^(6) No. of toxic deaths/total No. of mice.

For data set [3], the system named is Ascitic P388 Leukemia. Kind of data set: Antitumor activity "in vivo" against ascitic P388 leukemia, sensitive to Doxorubicin. Further details: species or system murine. The method, then: ^(3) 10^6 cell/mouse were injected i.p. on day 0.
as §3, §4, §5, §6

In data set [4] the test system is LoVo (colon adenocarcinama). Kind of data set: cells. As to conditions: for IC50: Homo sapiens, read-out: Cytotoxicity IC50 LoVo. It counts as cell-based, human.
From the text: as §1, §2

[5] abbreviates: 1.2 mg/kg i.p. one day after tumor transplantation.
Where [6] appears, read: 1.6 mg/kg i.p. one day after tumor transplantation.
Where [7] appears, read: 2.1 mg/kg i.p. one day after tumor transplantation.
The mark [8] stands for this setting: 2.8 mg/kg i.p. one day after tumor transplantation.
Setting [9] is: 3.7 mg/kg i.p. one day after tumor transplantation.
The mark [10] stands for this setting: 1.0 mg/kg i.p. one day after tumor transplantation.
Where [11] appears, read: 1.4 mg/kg i.p. one day after tumor transplantation.
Where [12] appears, read: 2.0 mg/kg i.p. one day after tumor transplantation.
[13] abbreviates: 22.0 mg/kg i.p. one day after tumor transplantation.
[14] abbreviates: 10.0 mg/kg i.p. one day after tumor transplantation.
Setting [15] is: 15.0 mg/kg i.p. one day after tumor transplantation.
[16] abbreviates: 1.9 mg/kg i.p. one day after tumor transplantation.
Setting [17] is: 2.5 mg/kg i.p. one day after tumor transplantation.
[18] abbreviates: 0.33 mg/kg i.p. one day after tumor transplantation.
Where [19] appears, read: 0.5 mg/kg i.p. one day after tumor transplantation.
[20] abbreviates: 0.75 mg/kg i.p. one day after tumor transplantation.

≈ marks a conversion by molar mass, not a printed value. Where two headings read alike, the source gives them in different places.

For the compound `CC(=O)[C@]1(O)Cc2c(O)c3c(c(O)c2[C@@H](O[C@H]2C[C@H](N(CCCl)CCCl)[C@H](OS(C)(=O)=O)[C@H](C)O2)C1)C(=O)c1ccccc1C3=O` [compound 1h, 4-demethoxy-4'-O-methansulfonyl-N,N-bis(2-chloroethyl)daunorubicin], in data set [1] (LoVo/DX versus LoVo, colony assay: 4 hr treatment), the “R.I. = Resistance Index (IC50 LoVo/DX)(IC50 LoVo)” value was 3.3. In addition, the “Cytotoxicity IC50 LoVo/DX” value in data set [1] (LoVo/DX, colony assay: 4 hr treatment) is 0.014 µg/mL. Besides, in data set [1] (LoVo/DX, in comparison with 4-demethoxydaunorubicin (3b) and Doxorubicin (3c)), the “activity on the doxorubicin-resistant cell line compared with 4-demethoxydaunorubicin and Doxorubicin” value is recorded as “striking higher activity”. Also, the “T/C (median survival time of treated mice/controls × 100)” value in data set [2] (setting [5]) was found to be 133%; in data set [2] (setting [6]) it was 144%; in data set [2] (setting [7]) it was 185%; in data set [2] (setting [8]) it was 220%; in data set [2] (setting [9]), 250%; in data set [3] (setting [10]), 184%. Also, the entries for the “T/C (median survival time of treated mice/controls × 100)” value in data set [3] (setting [11]), in data set [3] (setting [12]) and in data set [3] (setting [8]) were 217%, 233% and 78%, respectively. The TOX in data set [2] (setting [5]) is listed as 0/6; in data set [2] (setting [6]), 0/6; in data set [2] (setting [7]) it was 0/6; in data set [2] (setting [8]), 0/6; in data set [2] (setting [9]) it was 0/6; in data set [3] (setting [10]) it was 0/12. For the same compound, the TOX in data set [3] (setting [11]) was 0/6; in data set [3] (setting [12]) it was 1/6; in data set [3] (setting [8]) it was 6/6. Besides, in data set [2] (P388 resistant to Doxorubicin (Johnson)), the “activity when tested on resistant Leukemia” value was “high activity”. In addition, the “Cytotoxicity IC50 LoVo” value in data set [4] (colony assay: 4 hr treatment) stood at 0.0043 µg/mL.
In the case of `COc1cccc2c1C(=O)c1c(O)c3c(c(O)c1C2=O)C[C@@](O)(C(=O)CO)C[C@@H]3O[C@H]1C[C@H](N)[C@H](O)[C@H](C)O1` [Doxorubicin, doxorubicin], the figures for the IC50 in data set [1] (LoVo/DX) and in data set [4] (colony assay: 4 hr treatment) were 4.98 µg/mL (≈ 9.15 µM) and 0.0825 µg/mL (≈ 0.152 µM), respectively. The TOX was 0/6 in data set [2] (16.9 mg/kg i.p. one day after tumor transplantation), 3/6 in data set [2] (setting [13]), 0/10 in data set [3] (setting [14]) and 3/6 in data set [3] (setting [15]). Moreover, the entries for the “T/C (median survival time of treated mice/controls × 100)” value in data set [2] (setting [13]), in data set [3] (setting [14]) and in data set [3] (setting [15]) were 94%, 299% and 90%, respectively.
Consider `CC(=O)[C@]1(O)Cc2c(O)c3c(c(O)c2[C@@H](O[C@H]2C[C@H](N)[C@H](O)[C@H](C)O2)C1)C(=O)c1ccccc1C3=O` [4-demethoxydaunorubicin], for which the IC50 in data set [1] (LoVo/DX) was found to be 0.048 µg/mL (≈ 0.0965 µM); in data set [4] (4 h), 0.004 µg/mL (≈ 0.00804 µM). Besides, the “R.I. = Resistance Index (IC50 LoVo/DX)(IC50 LoVo)” value in data set [1] (human, lovo/dx vs lovo, 240 min) amounted to 12.0. For the same compound, the “T/C (median survival time of treated mice/controls × 100)” value in data set [2] (setting [16]) is on record as 106%; in data set [2] (setting [17]), 89%; in data set [3] (setting [18]), 142%; in data set [3] (setting [19]), 160%; in data set [3] (setting [20]) it was 163%. In addition, the TOX is recorded as 0/10 in data set [2] (setting [16]); 0/10 in data set [2] (setting [17]); 0/27 in data set [3] (setting [18]); 0/28 in data set [3] (setting [19]); 4/28 in data set [3] (setting [20]).
